In patent US20030039980A1, “Assays for determination of functional binding of compounds to receptors” (priority 2000, published 2003):

Assays:
[1] = biological target: T1, human PPARα ligand binding domain (GST-PPARα-LBD) (Homo sapiens, UniProt Q07869); assay: in vitro PPARα/SRC-1 binding assay (GST-PPARα-LBD / SRC-Luc complex captured on glutathione-sepharose beads, luciferase readout)
T1 construct: made in house; host or cells: E. coli BL21(DE3)pLysS
T1 sequence (Q07869 164-468): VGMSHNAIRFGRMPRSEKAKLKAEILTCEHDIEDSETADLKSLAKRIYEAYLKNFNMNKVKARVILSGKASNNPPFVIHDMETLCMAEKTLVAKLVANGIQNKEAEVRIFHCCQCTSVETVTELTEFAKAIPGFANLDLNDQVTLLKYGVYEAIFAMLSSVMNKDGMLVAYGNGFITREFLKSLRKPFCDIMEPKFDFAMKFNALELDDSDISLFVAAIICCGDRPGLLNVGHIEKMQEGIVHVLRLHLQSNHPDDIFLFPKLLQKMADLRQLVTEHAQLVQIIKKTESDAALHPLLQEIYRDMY
T1 sequence (Q15788 631-763 partner limits assumed): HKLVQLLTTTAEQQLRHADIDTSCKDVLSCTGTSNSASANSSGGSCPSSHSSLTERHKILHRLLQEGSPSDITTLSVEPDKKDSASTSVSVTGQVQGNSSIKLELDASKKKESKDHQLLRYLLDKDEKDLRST
Source text: For this example, the peroxisome proliferator-activated receptor-α (PPARα) nuclear receptor was chosen. The PPAR LBD was expressed in bacteria as a GST fusion protein (GST-PPARα-LBD) for use in the assay (FIG. 1). Also chosen was a known PPARα coactivator, SRC-1 (Takeshita Endocrinology 137:3594-3597 (1996)). SRC-1 was expressed as a GST fusion protein also containing a firefly luciferase moiety (GST-SRC-Luc). The GST moiety was subsequently cleaved away from purified GST-SRC-1-Luc protein to yield a purified SRC-Luc protein (FIG. 1). A known PPARα ligand, GW2331, was also chosen for establishing the assay.
The GST-PPARα-LBD expression plasmid was prepared as follows: the human PPARα ligand binding domain including the hinge region (amino acids 164-468, accession #S74349) was PCR amplified from HepG2 first-strand cDNA using synthetic primers (SEQ ID:1 and SEQ ID:2) and native Taq polymerase. The primers were tagged with BamHI (5′) and NotI (3′) restriction sites to facilitate cloning. PCR fragments were cloned directly into pGEM®-T (Promega Corp), screened by diagnostic restriction digests, and confirmed by DNA sequence analysis. A combination of clones was used to generate a complete, error-free clone. The PPARα hinge/ligand binding domain clone was then transferred into pGEX-4T-3 (Amersham Pharmacia Biotech) as a BamH I/Not I fragment to create an in-frame fusion with GST. […]

[2] = biological target: T2, human PPARβ ligand binding domain (GST-PPARβ-LBD) (Homo sapiens, UniProt Q03181); assay: in vitro PPARβ/SRC-1 binding assay (GST-PPARβ-LBD / SRC-Luc complex captured on glutathione-sepharose beads, luciferase readout); conditions: each ligand at final 5 μM; FIG. 3
T2 construct: made in house
T2 sequence (Q03181 136-441): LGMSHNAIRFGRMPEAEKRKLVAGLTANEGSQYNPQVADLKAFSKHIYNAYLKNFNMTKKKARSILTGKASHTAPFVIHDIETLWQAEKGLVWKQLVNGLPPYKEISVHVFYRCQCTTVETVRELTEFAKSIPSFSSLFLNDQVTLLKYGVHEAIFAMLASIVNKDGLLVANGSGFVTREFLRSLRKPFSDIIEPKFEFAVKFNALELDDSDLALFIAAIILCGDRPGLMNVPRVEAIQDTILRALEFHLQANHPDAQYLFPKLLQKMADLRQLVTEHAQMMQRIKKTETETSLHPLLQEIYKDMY
T2 sequence (Q15788 631-763 partner limits assumed): T1 sequence (Q15788 631-763 partner limits assumed)

CCCCCCCN(CCc1ccc(OC(C)(CC)C(=O)O)cc1)C(=O)Nc1ccc(F)cc1F (stereo not drawn) [GW2331, spec/2-(4-[2-(3[2,4-Difluorophenyl]-1-heptylureido)ethyl]phenoxy)-2-methylbutyric acid]
binding of ligand by GST-PPARα-LBD (luciferase activity of the isolated complex with SRC-Luc) ([1]; each ligand at final 5 μM, FIG. 3): efficiently
amount of GST-PPARα-LBD/GW2331 ligand/SRC-Luc complex (luciferase activity, light units) as the ligand concentration was increased ([1]; ligand at 0.001, 0.01, 0.1, 1.0, 10.0 and 100.0 μM, 2 h at 4° C., FIG. 2): also increased
binding of ligand by GST-PPARβ-LBD (luciferase activity of the isolated complex with SRC-Luc) [2]: roughly equal efficiency
